Measurements from ChEMBL document CHEMBL4422646, “Synthesis and biological evaluation of 3-amino-, 3-alkoxy- and 3-aryloxy-6-(hetero)arylpyridazines as potent antitumor agents” (Bioorg Med Chem Lett, 2019).
Activity calls are given as the source filed them. The rule behind the calls is not given here.

Columns and labels:
HaCaT [1] = test: Antiproliferative activity against human HaCaT cells after 48 hrs by Hoechst 33342 staining-based assay; format: cell-based
MDA-MB-231 [2] = test: Antiproliferative activity against human MDA-MB-231 cells at 0.1 to 25 uM after 48 hrs by Hoechst 33342 staining-based assay relative to control; format: functional
Caco-2 = test: Antiproliferative activity against human Caco2 cells after 48 hrs by Hoechst 33342 staining-based assay; format: functional, cell-based; conditions: Caco-2, 48 h
Fibroblast [3] = test: Antiproliferative activity against human fibroblast cells after 48 hrs by Hoechst 33342 staining-based assay; format: cell-based
PC-3 [4] = test: Antiproliferative activity against human PC3 cells after 48 hrs by Hoechst 33342 staining-based assay; format: functional, cell-based; conditions: PC-3, 48 h
Huh-7 [5] = test: Antiproliferative activity against human HuH7 cells at 0.1 to 25 uM after 48 hrs by Hoechst 33342 staining-based assay relative to control; format: functional
MDA-MB-231 [6] = test: Antiproliferative activity against human MDA-MB-231 cells after 48 hrs by Hoechst 33342 staining-based assay; format: functional, cell-based; conditions: MDA-MB-231, 48 h
HCT-116 [7] = test: Antiproliferative activity against human HCT116 cells at 0.1 to 25 uM after 48 hrs by Hoechst 33342 staining-based assay relative to control; format: functional
PC-3 [8] = test: Antiproliferative activity against human PC3 cells at 0.1 to 25 uM after 48 hrs by Hoechst 33342 staining-based assay relative to control; format: functional
NCI-H727 [9] = test: Antiproliferative activity against human NCI-H727 cells after 48 hrs by Hoechst 33342 staining-based assay; format: functional, cell-based; conditions: NCI-H727, 48 h
Fibroblast [10] = test: Antiproliferative activity against human fibroblast cells at 0.1 to 25 uM after 48 hrs by Hoechst 33342 staining-based assay relative to control; format: cell-based
Huh-7 [11] = test: Antiproliferative activity against human HuH7 cells after 48 hrs by Hoechst 33342 staining-based assay; format: functional, cell-based; conditions: Huh-7, 48 h
HCT-116 [12] = test: Antiproliferative activity against human HCT116 cells after 48 hrs by Hoechst 33342 staining-based assay; format: functional, cell-based; conditions: HCT-116, 48 h
HaCaT [13] = test: Antiproliferative activity against human HaCaT cells at 0.1 to 25 uM after 48 hrs by Hoechst 33342 staining-based assay relative to control; format: cell-based
NCI-H727 [14] = test: Antiproliferative activity against human NCI-H727 cells at 0.1 to 25 uM after 48 hrs by Hoechst 33342 staining-based assay relative to control; format: functional
[15] = target: Mitogen-activated protein kinase; ERK1/ERK2 (Homo sapiens) (UniProt P27361+P28482); test: Inhibition of EGF-stimulated p44/42 phosphorylation in human MDA-MB-468-Luc cells at 10^-5 M pre-incubated for 1 hr before EGF stimulation for 15 mins by Western blot analysis relative to control; format: cell-based
MDA-MB-468 = test: Anticlonogenic activity against human MDA-MB-468 cells harboring luciferase reporter gene after 2 weeks by Giemsa staining-based assay; format: functional, cell-based; conditions: MDA-MB-468, 336 h
[16] = Toxicity in zebrafish embryos assessed as alive embryo at 0.8 uM after 72 hrs; parameters: species or system Danio rerio; conditions: in vivo
[17] = target: RAC-alpha serine/threonine-protein kinase (Homo sapiens) (UniProt P31749); test: Inhibition of EGF-stimulated Akt phosphorylation in human MDA-MB-468-Luc cells at 10^-5 M pre-incubated for 1 hr before EGF stimulation for 15 mins by Western blot analysis relative to control; format: cell-based
[18] = Toxicity in zebrafish embryos assessed as effect on embryo mobility at 0.8 uM after 72 hrs; parameters: species or system Danio rerio; conditions: in vivo
[19] = Toxicity in zebrafish embryos assessed as reduction in eye size at 2.5 uM after 72 hrs; parameters: species or system Danio rerio; conditions: in vivo
[20] = Toxicity in zebrafish embryos at 2.5 uM after 72 hrs; parameters: species or system Danio rerio; conditions: in vivo
[21] = Toxicity in zebrafish embryos assessed as reduction in eye size at 0.8 uM after 72 hrs; parameters: species or system Danio rerio; conditions: in vivo
[22] = Toxicity in zebrafish embryos assessed as effect on embryo development at 0.8 uM after 72 hrs; parameters: species or system Danio rerio; conditions: in vivo
HepaRG = test: Hepatotoxicity in human HepaRG cells at 2.5 uM after 48 hrs; format: toxicity, cell-based

Sequence of RAC-alpha serine/threonine-protein kinase (Homo sapiens) (P31749 whole entry): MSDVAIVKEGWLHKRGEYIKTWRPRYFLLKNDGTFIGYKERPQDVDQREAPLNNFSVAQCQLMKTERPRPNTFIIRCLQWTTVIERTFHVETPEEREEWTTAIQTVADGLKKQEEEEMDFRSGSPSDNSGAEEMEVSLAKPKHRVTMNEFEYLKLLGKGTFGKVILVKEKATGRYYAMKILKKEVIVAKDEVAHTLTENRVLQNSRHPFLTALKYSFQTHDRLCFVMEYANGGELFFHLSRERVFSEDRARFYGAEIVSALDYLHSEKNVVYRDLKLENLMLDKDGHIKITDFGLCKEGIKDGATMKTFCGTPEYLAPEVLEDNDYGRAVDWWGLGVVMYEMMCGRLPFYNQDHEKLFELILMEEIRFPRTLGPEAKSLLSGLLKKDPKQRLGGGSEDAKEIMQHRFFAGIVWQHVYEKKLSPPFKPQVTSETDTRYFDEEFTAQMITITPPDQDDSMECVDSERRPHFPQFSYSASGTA
Sequence of Mitogen-activated protein kinase; ERK1/ERK2 (Homo sapiens) (P27361 whole entry, looked up): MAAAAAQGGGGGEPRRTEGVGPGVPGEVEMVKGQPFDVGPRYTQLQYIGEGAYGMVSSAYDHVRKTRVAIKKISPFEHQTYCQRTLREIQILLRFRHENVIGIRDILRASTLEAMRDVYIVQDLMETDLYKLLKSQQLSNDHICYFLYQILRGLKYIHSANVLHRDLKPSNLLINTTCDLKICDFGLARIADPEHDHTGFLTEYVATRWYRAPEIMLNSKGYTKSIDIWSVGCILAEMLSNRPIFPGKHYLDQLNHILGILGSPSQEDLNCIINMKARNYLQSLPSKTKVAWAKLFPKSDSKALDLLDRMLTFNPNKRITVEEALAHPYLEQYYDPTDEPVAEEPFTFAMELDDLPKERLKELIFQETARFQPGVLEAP
Sequence of Mitogen-activated protein kinase; ERK1/ERK2 (Homo sapiens) (P28482 whole entry, looked up): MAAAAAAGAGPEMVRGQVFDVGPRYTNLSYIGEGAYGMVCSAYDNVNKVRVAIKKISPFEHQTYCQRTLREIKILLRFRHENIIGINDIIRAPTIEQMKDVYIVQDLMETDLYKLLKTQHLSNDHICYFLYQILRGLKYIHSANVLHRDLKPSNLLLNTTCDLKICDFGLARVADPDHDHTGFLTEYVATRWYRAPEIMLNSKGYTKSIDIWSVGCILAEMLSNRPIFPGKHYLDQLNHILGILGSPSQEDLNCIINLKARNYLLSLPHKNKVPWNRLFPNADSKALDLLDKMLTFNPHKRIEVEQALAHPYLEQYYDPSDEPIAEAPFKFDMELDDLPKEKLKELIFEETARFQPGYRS

| Compound | IC50 (Caco-2) | IC50 (PC-3 [4]) | IC50 (MDA-MB-231 [6]) | IC50 (NCI-H727 [9]) | IC50 (Huh-7 [11]) | IC50 (HCT-116 [12]) | inhibition [15] | IC50 (MDA-MB-468) | IC50 (HaCaT [1]) | Activity (MDA-MB-231 [2]) | IC50 (Fibroblast [3]) | Activity (Huh-7 [5]) | Activity (HCT-116 [7]) | Activity (PC-3 [8]) | Activity (Fibroblast [10]) | Activity (HaCaT [13]) | Activity (NCI-H727 [14]) | further results |
| --- | --- | --- | --- | --- | --- | --- | --- | --- | --- | --- | --- | --- | --- | --- | --- | --- | --- | --- |
| CC[C@H](CO)Nc1nc(NCc2ccccc2)c2ncn(C(C)C)c2n1 [SELICICLIB] | – | 12 µM | – | – | 20 µM | 9 µM | – | – | 12 µM | 80% | 12 µM | 90% | 100% | 8% | 40% | 80% | 40% | – |
| Oc1cccc(-c2nc(N3CCOCC3)c3oc4ncccc4c3n2)c1 [PI-103] | 0.8 µM | 1.2 µM | 8 µM | > 25 µM | 6 µM | 3 µM | – | – | 2 µM | 40% | > 25 µM | 40% | 80% | 60% | – | 70% | – | – |
| CCN(CC)c1ccc(-c2ccc(C(=O)OC)cc2)nn1 | 0.25 µM | 0.09 µM | 0.14 µM | 0.09 µM | 0.09 µM | 0.06 µM | 70% | 0.015 µM | 0.08 µM | 60% | 0.1 µM | 60% | 100% | 72% | 40% | 85% | 60% | Activity [16]: Non-Toxic; inhibition [17]: > 70%; Activity [18]: Non-Toxic; Activity [19]: Toxic; Activity [20]: Toxic; Activity [21]: Non-Toxic; Activity [22]: Non-Toxic; Activity (HepaRG): Non-Toxic |
| COC(=O)c1ccc(-c2ccc(N(C)C)nn2)cc1 | > 25 µM | > 25 µM | > 25 µM | > 25 µM | > 25 µM | > 25 µM | inactive | 3.5 µM | – | – | > 25 µM | – | – | – | – | – | – | inhibition [17]: inactive |
| CC(=O)c1ccc(-c2ccc(N3CCCC3)nn2)cc1 | 50 µM | > 25 µM | > 25 µM | > 25 µM | 30 µM | > 25 µM | – | – | > 25 µM | – | > 25 µM | 75% | – | – | – | – | – | – |
| COc1ccc(Nc2ccc(-c3ccccc3)nn2)cc1 | 50 µM | > 25 µM | > 25 µM | > 25 µM | 30 µM | > 25 µM | – | – | > 25 µM | – | > 25 µM | 75% | – | – | – | – | – | – |
| COc1ccccc1-c1ccc(N2CCN(C)CC2)nn1 | 50 µM | > 25 µM | > 25 µM | > 25 µM | 30 µM | > 25 µM | – | – | > 25 µM | – | > 25 µM | 75% | – | – | – | – | – | – |

Second part, led by results:

| IC50 (Caco-2) | IC50 (PC-3 [4]) | IC50 (MDA-MB-231 [6]) | IC50 (NCI-H727 [9]) | IC50 (Huh-7 [11]) | IC50 (HCT-116 [12]) | inhibition [15] | IC50 (MDA-MB-468) | Compound | IC50 (HaCaT [1]) | Activity (MDA-MB-231 [2]) | IC50 (Fibroblast [3]) | Activity (Huh-7 [5]) | Activity (HCT-116 [7]) | Activity (PC-3 [8]) | Activity (Fibroblast [10]) | Activity (HaCaT [13]) | Activity (NCI-H727 [14]) | further results |
| --- | --- | --- | --- | --- | --- | --- | --- | --- | --- | --- | --- | --- | --- | --- | --- | --- | --- | --- |
| 0.09 µM | 0.08 µM | 0.012 µM | 0.03 µM | 0.03 µM | 0.05 µM | – | – | COc1cccc2c1C(=O)c1c(O)c3c(c(O)c1C2=O)C[C@@](O)(C(=O)CO)C[C@@H]3O[C@H]1C[C@H](N)[C@H](O)[C@H](C)O1 [DOXORUBICIN] | 0.03 µM | 50% | 0.005 µM | 40% | 80% | 80% | 40% | 70% | 60% | – |
| 15 µM | > 25 µM | 5 µM | 25 µM | 25 µM | 6 µM | < 50% | 0.65 µM | CCN(CC)c1ccc(-c2ccc(C(C)=O)cc2)nn1 | 20 µM | 60% | > 25 µM | 80% | 100% | – | – | 80% | 80% | – |
| > 25 µM | > 25 µM | > 25 µM | 30 µM | > 25 µM | > 25 µM | – | – | CCOC(=O)c1cccc(-c2ccc(N(CC)CC)nn2)c1 | > 25 µM | – | > 25 µM | – | – | – | – | – | 40% | – |
| – | < 0.001 µM | 0.06 µM | – | 0.012 µM | < 0.001 µM | – | – | CC(=O)O[C@H]1C(=O)[C@@]2(C)[C@H]([C@H](OC(=O)c3ccccc3)[C@]3(O)C[C@H](OC(=O)[C@H](O)[C@@H](NC(=O)c4ccccc4)c4ccccc4)C(C)=C1C3(C)C)[C@]1(OC(C)=O)CO[C@@H]1C[C@@H]2O [PACLITAXEL] | 0.002 µM | 60% | < 0.001 µM | 50% | 90% | 60% | 30% | 70% | – | – |
| 50 µM | > 25 µM | > 25 µM | > 25 µM | 30 µM | > 25 µM | – | – | FC(F)(F)c1cccc(-c2ccc(N3CCCC3)nn2)c1 | > 25 µM | – | > 25 µM | 75% | – | – | – | – | – | – |
| > 25 µM | > 25 µM | > 25 µM | > 25 µM | > 25 µM | > 25 µM | inactive | 26 µM | CCOC(=O)c1ccc(-c2ccc(N(C)C)nn2)cc1 | – | – | > 25 µM | – | – | – | – | – | – | inhibition [17]: inactive |
| 50 µM | > 25 µM | > 25 µM | > 25 µM | 30 µM | > 25 µM | – | – | Cc1ccc(-c2ccc(N3CCN(c4ccccc4)CC3)nn2)cc1 | > 25 µM | – | > 25 µM | 75% | – | – | – | – | – | – |
| 4 µM | 1 µM | 1.5 µM | 1.5 µM | 9 µM | 0.5 µM | 70% | 0.12 µM | CCOC(=O)c1ccc(-c2ccc(N(CC)CC)nn2)cc1 | 0.5 µM | 70% | 3 µM | 60% | 90% | 80% | 40% | 80% | 60% | Activity [16]: Non-Toxic; inhibition [17]: Active; Activity [18]: Non-Toxic; Activity [20]: Toxic; Activity [22]: Non-Toxic; Activity (HepaRG): Non-Toxic |
